Here are results for four compounds from publication PMC2726284, “Electron Crystallography Reveals Plasticity within the Drug Binding Site of the Small Multidrug Transporter EmrE” (Journal of Molecular Biology, 2008).

As usually defined, the Ki is the dissociation constant of the complex between target and ligand, obtained from inhibition or displacement. A lower Ki goes with a stronger hold on the target. In general, Kd refers to a measure of binding affinity in units of concentration.

The target in assay [1] is T1, EmrE (Escherichia coli, UniProt P23895).
T1 construct: 6xHis-tagged EmrE, purified, detergent (DDM)-solubilized
As to the kind of experiment: [3H]TPP+ radioligand competition; exchange in 2-D crystals and cryo-EM projection map. Type of assay: binding.

For assay [2], the target named is T1, EmrE. The experiment in a line: [3H]TPP+ radioligand competition; cryo-EM projection structure of 2-D co-crystals at […] Å. It is filed as binding.
The target of assay [3] is T1, EmrE. The experiment in a line: [3H]TPP+ radioligand binding to solubilized EmrE and 2-D crystals. The settings on record: cited from earlier work.

SMILES strings stand for the structures.

T1 sequence (P23895 whole entry): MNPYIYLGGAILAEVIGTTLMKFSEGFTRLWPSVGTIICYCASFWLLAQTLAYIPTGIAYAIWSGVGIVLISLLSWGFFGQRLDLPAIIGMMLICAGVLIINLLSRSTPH

On EmrE [1], `Cc1cc(N)c2ccccc2[n+]1CCCCCCCCCC[n+]1c(C)cc(N)c2ccccc21` [DQ^2+, dequalinium] gave an inhibitory constant (Ki) of 83 ± 9 nM.
`CC[n+]1c(-c2ccccc2)c2cc(N)ccc2c2ccc(N)cc21` [Eth^+, ethidium] showed an inhibition constant Ki on EmrE [2] of 1000 ± 900 nM.
Regarding `CC[N+](C)(CC)CCC[n+]1c(-c2ccccc2)c2cc(N)ccc2c2ccc(N)cc21` [PP^2+, propidium], the inhibition constant Ki at EmrE [1] worked out at 19 ± 4 nM.
Regarding `c1ccc([P+](c2ccccc2)(c2ccccc2)c2ccccc2)cc1` [TPP^+, tetraphenylphosphonium], the dissociation constant (Kd) on EmrE [3] is 2.4 nM.
